Data as given in patent publication US5491135A (priority 1993, dated 1996).
Where “and” joins values, the source holds several entries; their conditions need not be identical. Identical values can stand only once. Entries after “also recorded” stand apart in the source; their conditions may differ. Like-named read-outs stand apart in the source and are kept apart here.

How the values were obtained:
[1] = test system: clinical HCMV isolate; assay type: cell-based
[2] = test system: HCMV strain AD169; assay type: cell-based
[3] = test system: HCMV strain AD 169; experiment: Rabbit HCMV efficacy and time course recovery (Example 6); conditions: for Chorioretinal score (C) / Vitreitis score (V): sham-inoculated S1-S5, dose as groups 1-5
[4] = test system: HCMV strain AD 169; experiment: Rabbit HCMV ascending dose efficacy and time course recovery (Example 7)
[5] = day 3, PALA 50, DHPG 10 or both, mg/kg/d
[6] = day 4, PALA 50, DHPG 10 or both, mg/kg/d
[7] = day 5, PALA 50, DHPG 10 or both, mg/kg/d
[8] = day 6, PALA 50, DHPG 10 or both, mg/kg/d
[9] = day 3, PALA 75 mg/kg/d, with or without steroid

O=C(O)C[C@H](NC(=O)CP(=O)(O)O)C(=O)O [PALA]
reduction of HCMV titer [1]: effective in reducing the titer
log reduction at 10 µg/mL ([1]; Human betaherpesvirus 5, Hs68, read-out: viral yield reduction): 2 to 3
Cell associated HCMV titer ([1]; day 0 PI): 10^2 PFU/ml
Cell free (supernatant) HCMV titer ([1]; day 0 PI): 10^5 PFU/ml
Cell associated HCMV titer ([1]; day 1 PI): 10^3 PFU/ml
Cell free (supernatant) HCMV titer ([1]; day 1 PI): 10^2 PFU/ml
Cell associated HCMV titer ([1]; day 2 PI): 10^2 PFU/ml
Cell free (supernatant) HCMV titer ([1]; day 2 PI): 10^1 PFU/ml
Cell associated HCMV titer ([1]; day 3 PI): 10^1 PFU/ml
Cell free (supernatant) HCMV titer ([1]; day 3 PI): 10^2 PFU/ml
Cell associated HCMV titer ([1]; day 4 PI): 10^1 PFU/ml
Cell free (supernatant) HCMV titer ([1]; day 4 PI): 10^1 PFU/ml
Cell associated HCMV titer ([1]; day 5 PI): 0 PFU/ml
Cell free (supernatant) HCMV titer ([1]; day 5 PI): 10^1 PFU/ml
Cell associated HCMV titer ([1]; day 6 PI): 10^1 PFU/ml
Cell associated HCMV titer ([1]; day 7 PI): 10^1 PFU/ml
log reduction at 10 µg/mL ([2]; Human betaherpesvirus 5, AD169, Hs68, read-out: viral yield reduction): 2 to 3
reduction of HCMV titer ([2]; PALA 3 μg/ml, DHPG 19 μg/ml): effective in reducing HCMV titers
Cell associated HCMV titer ([2]; day 0 PI): 10^2 PFU/ml
Cell free (supernatant) HCMV titer ([2]; day 0 PI): 10^5 PFU/ml
Cell associated HCMV titer ([2]; day 1 PI): 10^3 PFU/ml
Cell free (supernatant) HCMV titer ([2]; day 1 PI): 10^1 PFU/ml
Cell associated HCMV titer ([2]; day 2 PI): 10^1 PFU/ml
Cell free (supernatant) HCMV titer ([2]; day 2 PI): 10^1 PFU/ml
Cell associated HCMV titer ([2]; day 3 PI): 10^1 PFU/ml
Cell free (supernatant) HCMV titer ([2]; day 3 PI): 10^3 PFU/ml
Cell associated HCMV titer ([2]; day 4 PI): 10^1 PFU/ml
Cell free (supernatant) HCMV titer ([2]; day 4 PI): 10^2 PFU/ml
Cell associated HCMV titer ([2]; day 5 PI): 10^1 PFU/ml
Cell free (supernatant) HCMV titer ([2]; day 5 PI): 10^1 PFU/ml
Cell associated HCMV titer ([2]; day 6 PI): 10^1 PFU/ml
Cell associated HCMV titer ([2]; day 7 PI): 0 PFU/ml
HCMV recovery ([3]; PALA 50, DHPG 10 or both, mg/kg/day i.v.): better than recovery in placebo treated eyes
HCMV Recovered, OD [3, 5]: +
HCMV Recovered, OS [3, 5]: +
HCMV Titer, OD [3, 5]: 10^4 pfu
HCMV Titer, OS [3, 5]: 10^4 pfu
HCMV recovery frequency [3, 5]: 2/2
Chorioretinal score (C) ([3]; day 3): 0
Vitreitis score (V) ([3]; day 3): 0
HCMV Recovered, OD [3, 6]: +
HCMV Recovered, OS [3, 6]: +
HCMV Titer, OD [3, 6]: 10^3 pfu
HCMV Titer, OS [3, 6]: 10^2 pfu
HCMV recovery frequency [3, 6]: 2/2
Chorioretinal score (C) ([3]; day 4): 0
Vitreitis score (V) ([3]; day 4): 0
HCMV Titer, OD ([3]; day 5, PALA 50 mg/kg/d): 10^1 pfu
HCMV Titer, OS ([3]; day 5, PALA 50 mg/kg/d): 10^2 pfu
HCMV Recovered, OD [3, 7]: +
HCMV Recovered, OS [3, 7]: +
HCMV recovery frequency [3, 7]: 2/2
Chorioretinal score (C) ([3]; day 5): 0
Vitreitis score (V) ([3]; day 5): 0
HCMV Titer, OS ([3]; day 6, PALA 50 mg/kg/d): 10^1 pfu
HCMV Recovered, OD [3, 8]: +
HCMV Recovered, OS [3, 8]: +
HCMV recovery frequency [3, 8]: 2/2
HCMV Titer, OD ([3]; day 6, PALA 50 or DHPG 10 mg/kg/d): 10^1 pfu
Chorioretinal score (C) ([3]; day 6): 0
Vitreitis score (V) ([3]; day 6): 0
Chorioretinal score (C) ([3]; day 7): 0
Vitreitis score (V) ([3]; day 7): 0
Chorioretinal score (C) ([3]; day 10): 0
Vitreitis score (V) ([3]; day 10): 0
vitreitis / chorioretinal disease ([3]; sham-inoculated S1, PALA 50 mg/kg/day): did not develop any vitreitis nor chorioretinal disease
HCMV recovery vs placebo ([4]; PALA 75 mg/kg/day): comparable to placebo therapy
clinical disease / efficacy ([4]; PALA 75 mg/kg/day i.v., with or without steroid): vitreitis increased through day 6 post inoculation; also recorded: not improved when compared to the 50 mg/kg/day PALA dose or to the 10 mg/kg/day DHPG dose
HCMV recovery vs placebo ([4]; PALA 100 mg/kg/day): significantly higher than HCMV recovery in placebo treated animals
clinical disease / efficacy ([4]; PALA 100 mg/kg/day i.v.): Both the vitreitis and optic nerve head disease severity were increased compared to other single-agent PALA, DHPG and placebo therapies; also recorded: not effective in reducing the clinical disease progression or HCMV recovery
toxicity ([4]; PALA 100 mg/kg/day i.v.): toxic to the animals; also recorded: animal died prior
clinical disease / efficacy ([4]; PALA 50 or DHPG 10 mg/kg/day i.v.): vitreitis increased through day 6 post inoculation; also recorded: optic nerve head pathology peaked on day 4 after inoculation and decreased to low levels
HCMV Recovered, OD [4, 9]: +
HCMV Recovered, OS [4, 9]: +
HCMV Titer, OD [4, 9]: 10^5 pfu and 10^4 pfu
HCMV Titer, OS [4, 9]: 10^4 pfu
HCMV recovery frequency [4, 9]: 4/4
Optic neuritis score (ONH) [4, 9]: 2.0
Vitreo-retinal score ([4]; day 3, PALA 75 mg/kg/d, with or without steroid, sum of both eyes): 2.25 and 1.5
Average HCMV titer ([4]; day 3, PALA 100 mg/kg/d): 10^4 pfu
HCMV Recovered, OD ([4]; day 3, PALA 100 mg/kg/d): +
HCMV Recovered, OS ([4]; day 3, PALA 100 mg/kg/d): +
HCMV Titer, OD ([4]; day 3, PALA 100 mg/kg/d): 10^4 pfu
HCMV Titer, OS ([4]; day 3, PALA 100 mg/kg/d): 10^3 pfu
HCMV recovery frequency ([4]; day 3, PALA 100 mg/kg/d): 4/4
